Data published in patent US20250388605A1, “HETEROBIFUNCTIONAL COMPOUNDS AND METHODS OF TREATING DISEASE” (Halda Therapeutics OpCo, Inc., priority 2022, published 2025).

Columns and labels:
[1] = test system: T-Rex 293 cell line SC3 cells having increased expression of androgen receptor protein due to exposure to doxycycline; assay: Cellular growth inhibition, T-Rex 293 SC3 cells with doxycycline (increased androgen receptor expression), CellTiter-Glo; format: cell-based; settings: T-Rex 293 SC3 cells with 10 ng/mL doxycycline (increased androgen receptor expression), 72 hours, CellTiter-Glo 2.0
Outline: (§1)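 Doxycycline (10 ng/mL) was either included or omitted to toggle wild-type androgen receptor expression in SC3 cells, a T-Rex 293 clone, grown in stripped-serum, phenol red-free medium. After 72 hours with compound, viable cells were quantified by CellTiter-Glo 2.0.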

BRD4-BD2 = molecular target: T1, BRD4-BD2 (Homo sapiens, UniProt O60885); assay: Binding affinity to BRD4-BD2 (bromoKdELECT assay); settings: 11-point 3-fold dilution series
T1 construct: made in house; host or cells: T7 phage grown in an E. coli host derived from the BL21 strain
Protocol: Compounds were tested using a bromoKdELECT assay. T7 phage strains displaying bromodomains were grown in parallel in 24-well blocks in an E. coli host derived from the BL21 strain. E. coli were grown to log-phase and infected with T7 phage from a frozen stock (multiplicity of infection=0.4) and incubated with shaking at 32° C. until lysis (90-150 minutes). The lysates were centrifuged (5,000×g) and filtered ([…]) to remove cell debris. Streptavidin-coated magnetic beads were treated with biotinylated small molecule or acetylated peptide ligands for 30 minutes at room temperature to generate affinity resins for bromodomain assays. The liganded beads were blocked with excess biotin and washed with blocking buffer (SeaBlock (Pierce), 1% BSA, 0.05% Tween 20, 1 mM DTT) to remove unbound ligand and to reduce nonspecific phage binding. Binding reactions were assembled by combining bromodomains, liganded affinity beads, and test compounds in 1× binding buffer (17% SeaBlock, 0.33×PBS, 0.04% Tween 20, 0.02% BSA, 0.004% Sodium azide, 7.4 mM DTT). Test compounds were prepared as 1000× stocks in 100% DMSO. Kds were determined using an 11-point 3-fold compound dilution series with one DMSO control point. All compounds for Kd measurements are distributed by acoustic transfer (non-contact dispensing) in 100% DMSO. The compounds were then diluted directly into the assays such that the final concentration of DMSO was 0.09%. All reactions performed in polypropylene 384-well plates. Each was a final volume of 0.02 ml. The assay plates were incubated at room temperature with shaking for 1 hour and the affinity beads were washed with wash buffer (1×PBS, 0.05% Tween 20). The beads were then resuspended in elution buffer (1×PBS, 0.05% Tween 20, 2 μM non-biotinylated affinity ligand) and incubated at room temperature with shaking for 30 minutes. The bromodomain concentration in the eluates was measured by qPCR.

VCaP cells = assay: Cellular growth inhibition assay for VCaP cells, CellTiter-Glo; format: cell-based, human; settings: Homo sapiens, 72 hours
Outline: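 GI50 values come from four-parameter curve fits of luminescence data normalized to a zero baseline. Compound, in medium with 0.5% DMSO, was added one day after plating and left for 72 h before CellTiter-Glo 2.0 addition.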

[2] = test system: T-Rex 293 cell line SC3 cells lacking increased expression of androgen receptor protein; assay: Cellular growth inhibition, T-Rex 293 SC3 cells without doxycycline (no increased androgen receptor expression), CellTiter-Glo; format: cell-based; settings: T-Rex 293 SC3 cells not exposed to doxycycline (no increased androgen receptor expression), 72 hours
Outline: as §1

| SMILES | GI50 [1] | Kd (BRD4-BD2) | GI50 (VCaP cells) | GI50 [2] |
| --- | --- | --- | --- | --- |
| CCS(=O)(=O)Nc1ccc(Oc2cccc(OCCN(C)c3ncc(C(=O)N[C@H]4C(C)(C)[C@H](Oc5ccc(C#N)c(Cl)c5)C4(C)C)cn3)c2)c(-c2cn(C)c(=O)c3[nH]ccc23)c1 [Compound I-1, N-((1r, 3r)-3-(3-chloro-4-cyanophenoxy)-2,2,4,4-tetramethylcyclobutyl)-2-((2-(3-(4-(ethylsulfonamido)-2-(6-methyl-7-oxo-6,7-dihydro-1H-pyrrolo[2,3-c]pyridin-4-yl)phenoxy)phenoxy)ethyl)(methyl)amino)pyrimidine-5-carboxamide] | < 500 nM | < 50 nM | < 500 nM | 500 to 1500 nM |
| CCS(=O)(=O)Nc1ccc(Oc2cccc(OCCOCCOCCOCCOCCN(C)c3ncc(C(=O)N[C@H]4C(C)(C)[C@H](Oc5ccc(C#N)c(Cl)c5)C4(C)C)cn3)c2)c(-c2cn(C)c(=O)c3[nH]ccc23)c1 [Compound I-3] | < 500 nM | < 50 nM | < 500 nM | > 3000 nM |
| CCS(=O)(=O)Nc1ccc(Oc2cccc(OCCOC3CCN(c4ncc(C(=O)N[C@H]5C(C)(C)[C@H](Oc6ccc(C#N)c(Cl)c6)C5(C)C)cn4)CC3)c2)c(-c2cn(C)c(=O)c3[nH]ccc23)c1 [Compound I-6] | < 500 nM | 50 to 500 nM | < 500 nM | < 500 nM |
| CCS(=O)(=O)Nc1ccc(Oc2cccc(OCCOCCOCCOC3CCN(c4ncc(C(=O)N[C@H]5C(C)(C)[C@H](Oc6ccc(C#N)c(Cl)c6)C5(C)C)cn4)CC3)c2)c(-c2cn(C)c(=O)c3[nH]ccc23)c1 [Compound I-7] | < 500 nM | < 50 nM | < 500 nM | < 500 nM |
| CCS(=O)(=O)Nc1ccc(Oc2cccc(OCCOCCOCCOCCOCCOC3CCN(c4ncc(C(=O)N[C@H]5C(C)(C)[C@H](Oc6ccc(C#N)c(Cl)c6)C5(C)C)cn4)CC3)c2)c(-c2cn(C)c(=O)c3[nH]ccc23)c1 [Compound I-8] | < 500 nM | < 50 nM | < 500 nM | < 500 nM |
| CCS(=O)(=O)Nc1ccc(Oc2cccc(OCCOC3CCN(c4ccc(C(=O)N[C@H]5C(C)(C)[C@H](Oc6ccc(C#N)c(Cl)c6)C5(C)C)nn4)CC3)c2)c(-c2cn(C)c(=O)c3[nH]ccc23)c1 [Compound I-11] | < 500 nM | < 50 nM | < 500 nM | < 500 nM |
| CCS(=O)(=O)Nc1ccc(Oc2cccc(OCCOCCOC3CCN(c4ncc(C(=O)N[C@H]5C(C)(C)[C@H](Oc6ccc(C#N)c(Cl)c6)C5(C)C)cn4)CC3)c2)c(-c2cn(C)c(=O)c3[nH]ccc23)c1 [Compound I-13] | < 500 nM | < 50 nM | < 500 nM | < 500 nM |
| CCS(=O)(=O)Nc1ccc(Oc2cccc(COC3CCN(c4ncc(C(=O)N[C@H]5C(C)(C)[C@H](Oc6ccc(C#N)c(Cl)c6)C5(C)C)cn4)CC3)c2)c(-c2cn(C)c(=O)c3[nH]ccc23)c1 [Compound I-18, N-((1r, 3r)-3-(3-chloro-4-cyanophenoxy)-2,2,4,4-tetramethylcyclobutyl)-2-(4-((3-(4-(ethylsulfonamido)-2-(6-methyl-7-oxo-6,7-dihydro-1H-pyrrolo[2,3-c]pyridin-4-yl)phenoxy)benzyl)oxy)piperidin-1-yl)pyrimidine-5-carboxamide] | < 500 nM | < 50 nM | < 500 nM | < 500 nM |
| CCS(=O)(=O)Nc1ccc(Oc2cccc(N(C)C3CN(CC4CCN(c5ncc(C(=O)NC6C(C)(C)C(Oc7ccc(C#N)c(Cl)c7)C6(C)C)cn5)CC4)C3)c2)c(-c2cn(C)c(=O)c3[nH]ccc23)c1 (stereo not drawn) [Compound I-39] | < 500 nM | < 50 nM | < 500 nM | < 500 nM |
| CCS(=O)(=O)Nc1ccc(Oc2cccc(OCCOC3CCN(c4ncc(C(=O)N[C@H]5C(C)(C)[C@H](Oc6ccc(C#N)c(Cl)c6)C5(C)C)cn4)CC3)n2)c(-c2cn(C)c(=O)c3[nH]ccc23)c1 [Compound I-47, N-((1r, 3r)-3-(3-chloro-4-cyanophenoxy)-2,2,4,4-tetra-methylcyclobutyl)-2-(4-(2-((6-(4-(ethylsulfonamido)-2-(6-methyl-7-oxo-6,7-dihydro-1H-pyrrolo[2,3-c]pyridin-4-yl)phenoxy)pyridin-2-yl)oxy)ethoxy)piperidin-1-yl)pyrimidine-5-carboxamide] | < 500 nM | < 50 nM | < 500 nM | < 500 nM |
| CCS(=O)(=O)Cc1ccc(Oc2cccc(OCCOC3CCN(c4ncc(C(=O)N[C@H]5C(C)(C)[C@H](Oc6ccc(C#N)c(Cl)c6)C5(C)C)cn4)CC3)c2)c(-c2cn(C)c(=O)c3[nH]ccc23)c1 [Compound I-54, N-((1r, 3r)-3-(3-chloro-4-cyanophenoxy)-2,2,4,4-tetramethylcyclobutyl)-2-(4-(2-(3-(4-((ethylsulfonyl)methyl)-2-(6-methyl-7-oxo-6,7-dihydro-1H-pyrrolo[2,3-c]pyridin-4-yl)phenoxy)phenoxy)ethoxy)piperidin-1-yl)pyrimidine-5-carboxamide] | < 500 nM | 50 to 500 nM | < 500 nM | < 500 nM |
| Cn1cc(-c2cc(C(C)(C)O)ccc2Oc2cccc(OCCOC3CCN(c4ncc(C(=O)N[C@H]5C(C)(C)[C@H](Oc6ccc(C#N)c(Cl)c6)C5(C)C)cn4)CC3)c2)c2cc[nH]c2c1=O [Compound I-56, N-((1r, 3r)-3-(3-chloro-4-cyanophenoxy)-2,2,4,4-tetramethylcyclobutyl)-2-(4-(2-(3-(4-(2-hydroxypropan-2-yl)-2-(6-methyl-7-oxo-6,7-dihydro-1H-pyrrolo[2,3-c]pyridin-4-yl)phenoxy)phenoxy)ethoxy)piperidin-1-yl)pyrimidine-5-carboxamide] | < 500 nM | 50 to 500 nM | < 500 nM | < 500 nM |
| Cn1cc(-c2ccccc2Oc2cccc(OCCOC3CCN(c4ncc(C(=O)N[C@H]5C(C)(C)[C@H](Oc6ccc(C#N)c(Cl)c6)C5(C)C)cn4)CC3)c2)c2cc[nH]c2c1=O [Compound I-61, N-((1r, 3r)-3-(3-chloro-4-cyanophenoxy)-2,2,4,4-tetramethylcyclobutyl)-2-(4-(2-(3-(2-(6-methyl-7-oxo-6,7-dihydro-1H-pyrrolo[2,3-c]pyridin-4-yl)phenoxy)phenoxy)ethoxy)piperidin-1-yl)pyrimidine-5-carboxamide] | < 500 nM | > 2500 nM | < 500 nM | 1500 to 3000 nM |
| Cn1cc(-c2cc(N)ccc2Oc2cccc(OCCOC3CCN(c4ncc(C(=O)N[C@H]5C(C)(C)[C@H](Oc6ccc(C#N)c(Cl)c6)C5(C)C)cn4)CC3)c2)c2cc[nH]c2c1=O [Compound I-62, 2-(4-(2-(3-(4-amino-2-(6-methyl-7-oxo-6,7-dihydro-1H-pyrrolo[2,3-c]pyridin-4-yl)phenoxy)phenoxy)ethoxy)piperidin-1-yl)-N-((1r, 3r)-3-(3-chloro-4-cyanophenoxy)-2,2,4,4-tetramethylcyclobutyl)pyrimidine-5-carboxamide] | < 500 nM | > 2500 nM | < 500 nM | > 3000 nM |
| CCS(=O)(=O)Nc1ccc(Oc2ccc(F)c(OCCOC3CCN(c4ncc(C(=O)N[C@H]5C(C)(C)[C@H](Oc6ccc(C#N)c(Cl)c6)C5(C)C)cn4)CC3)c2F)c(-c2cn(C)c(=O)c3[nH]ccc23)c1 [Compound I-65] | < 500 nM | < 50 nM | < 500 nM | < 500 nM |
| CCS(=O)(=O)Nc1ccc(Oc2cccc(N3CC(N4CCN(c5ncc(C(=O)N[C@H]6C(C)(C)[C@H](Oc7ccc(C#N)c(Cl)c7)C6(C)C)cn5)CC4)C3)c2)c(-c2cn(C)c(=O)c3[nH]ccc23)c1 [Compound I-75] | < 500 nM | 50 to 500 nM | < 500 nM | < 500 nM |
| CCS(=O)(=O)Nc1ccc(Oc2cccc(N3CC(OC4CCN(c5ncc(C(=O)N[C@H]6C(C)(C)[C@H](Oc7ccc(C#N)c(Cl)c7)C6(C)C)cn5)CC4)C3)c2)c(-c2cn(C)c(=O)c3[nH]ccc23)c1 [Compound I-80] | < 500 nM | 50 to 500 nM | < 500 nM | < 500 nM |
| CCS(=O)(=O)Nc1ccc(Oc2cccc(NCCOC3CCN(c4ncc(C(=O)N[C@H]5C(C)(C)[C@H](Oc6ccc(C#N)c(Cl)c6)C5(C)C)cn4)CC3)c2)c(-c2cn(C)c(=O)c3[nH]ccc23)c1 [Compound I-84] | < 500 nM | < 50 nM | < 500 nM | < 500 nM |
